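These data come from cells grown in 96-well plates and exposed to compound for 48 hours at five concentrations. GI50 marks 50% less growth.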 The source made the active and inactive calls. Cut-off read from the data, not from the text of the source: active = GI50 up to about 1.1 µM and inactive = higher.
Columns and labels:
Experiment in all cases: NCI anticancer screen, dose series, 48 h
786-0 = tested on: 786-0
A549 = tested on: A549
SNB-75 = tested on: SNB-75
RXF 393 = tested on: RXF 393
NCI-H460 = tested on: NCI-H460
HCC 2998 = tested on: HCC 2998
HT-29 = tested on: HT-29
CCRF-CEM = tested on: CCRF-CEM
Malme-3M = tested on: Malme-3M
SF-295 = tested on: SF-295
U-251 = tested on: U-251
RPMI-8226 = tested on: RPMI-8226
UACC-257 = tested on: UACC-257
MDA-MB-231 = tested on: MDA-MB-231
SF-539 = tested on: SF-539
OVCAR-8 = tested on: OVCAR-8
NCI-H226 = tested on: NCI-H226
CAKI-1 = tested on: CAKI-1
HOP-62 = tested on: HOP-62
SR = tested on: SR
SK-MEL-2 = tested on: SK-MEL-2
MCF7 = tested on: MCF7
COLO 205 = tested on: COLO 205
PC-3 = tested on: PC-3
DU-145 = tested on: DU-145
LOX IMVI = tested on: LOX IMVI
BT-549 = tested on: BT-549
M14 = tested on: M14
Hs-578T = tested on: Hs-578T
SN12C = tested on: SN12C
A498 = tested on: A498
SNB-19 = tested on: SNB-19
MDA-N = tested on: MDA-N
KM12 = tested on: KM12
HCT-15 = tested on: HCT-15
HL-60 = tested on: HL-60
OVCAR-4 = tested on: OVCAR-4
OVCAR-3 = tested on: OVCAR-3
SK-OV-3 = tested on: SK-OV-3
HOP-92 = tested on: HOP-92
MDA-MB-435 = tested on: MDA-MB-435
NCI-H23 = tested on: NCI-H23
SK-MEL-5 = tested on: SK-MEL-5
NCI/ADR-RES = tested on: NCI/ADR-RES
EKVX = tested on: EKVX
SK-MEL-28 = tested on: SK-MEL-28
OVCAR-5 = tested on: OVCAR-5
K562 = tested on: K562
IGROV-1 = tested on: IGROV-1
UACC-62 = tested on: UACC-62
TK-10 = tested on: TK-10
SW-620 = tested on: SW-620
ACHN = tested on: ACHN
NCI-H522 = tested on: NCI-H522
T47D = tested on: T47D
UO-31 = tested on: UO-31
HCT-116 = tested on: HCT-116
SF-268 = tested on: SF-268
MOLT-4 = tested on: MOLT-4

Cc1cccc2c1CC(C1OC(=O)c3ccccc31)C2=O (stereo not drawn)
GI50 (786-0): > 100 µM (inactive)
GI50 (A549): > 100 µM (inactive)
GI50 (SNB-75): > 100 µM (inactive)
GI50 (RXF 393): > 100 µM (inactive)
GI50 (NCI-H460): > 100 µM (inactive)
GI50 (HCC 2998): > 100 µM (inactive)
GI50 (HT-29): 48.5 µM (inactive)
GI50 (CCRF-CEM): > 100 µM (inactive)
GI50 (Malme-3M): > 100 µM (inactive)
GI50 (SF-295): > 100 µM (inactive)
GI50 (U-251): > 100 µM (inactive)
GI50 (RPMI-8226): > 100 µM (inactive)
GI50 (UACC-257): > 100 µM (inactive)
GI50 (MDA-MB-231): > 100 µM (inactive)
GI50 (SF-539): > 100 µM (inactive)
GI50 (OVCAR-8): > 100 µM (inactive)
GI50 (NCI-H226): > 100 µM (inactive)
GI50 (CAKI-1): > 100 µM (inactive)
GI50 (HOP-62): > 100 µM (inactive)
GI50 (SR): > 100 µM (inactive)
GI50 (SK-MEL-2): > 100 µM (inactive)
GI50 (MCF7): > 100 µM (inactive)
GI50 (COLO 205): > 100 µM (inactive)
GI50 (PC-3): > 100 µM (inactive)
GI50 (DU-145): > 100 µM (inactive)
GI50 (LOX IMVI): > 100 µM (inactive)
GI50 (BT-549): > 100 µM (inactive)
GI50 (M14): > 100 µM (inactive)
GI50 (Hs-578T): > 100 µM (inactive)
GI50 (SN12C): > 100 µM (inactive)
GI50 (A498): > 100 µM (inactive)
GI50 (SNB-19): > 100 µM (inactive)
GI50 (MDA-N): > 100 µM (inactive)
GI50 (KM12): > 100 µM (inactive)
GI50 (HCT-15): > 100 µM
GI50 (HL-60): > 100 µM (inactive)
GI50 (OVCAR-4): > 100 µM (inactive)
GI50 (OVCAR-3): > 100 µM (inactive)
GI50 (SK-OV-3): > 100 µM (inactive)
GI50 (HOP-92): > 100 µM (inactive)
GI50 (MDA-MB-435): > 100 µM (inactive)
GI50 (NCI-H23): > 100 µM (inactive)
GI50 (SK-MEL-5): > 100 µM (inactive)
GI50 (NCI/ADR-RES): > 100 µM (inactive)
GI50 (EKVX): > 100 µM (inactive)
GI50 (SK-MEL-28): > 100 µM (inactive)
GI50 (OVCAR-5): > 100 µM (inactive)
GI50 (K562): > 100 µM (inactive)
GI50 (IGROV-1): > 100 µM (inactive)
GI50 (UACC-62): > 100 µM (inactive)
GI50 (TK-10): > 100 µM (inactive)
GI50 (SW-620): > 100 µM (inactive)
GI50 (ACHN): > 100 µM (inactive)
GI50 (NCI-H522): > 100 µM (inactive)
GI50 (T47D): > 100 µM (inactive)
GI50 (UO-31): > 100 µM (inactive)
GI50 (HCT-116): > 100 µM (inactive)
GI50 (SF-268): > 100 µM (inactive)
GI50 (MOLT-4): > 100 µM (inactive)

COC(=O)[C@@H]1C[C@H]([Se]c2ccccc2)CN1C(=O)OCc1ccccc1
GI50 (786-0): 41.7 µM (inactive)
GI50 (A549): 29.6 µM (inactive)
GI50 (SNB-75): 63.4 µM (inactive)
GI50 (RXF 393): 20.2 µM (inactive)
GI50 (NCI-H460): 24.8 µM (inactive)
GI50 (HCC 2998): 87.9 µM (inactive)
GI50 (HT-29): 26 µM (inactive)
GI50 (CCRF-CEM): 34.1 µM (inactive)
GI50 (Malme-3M): 26.2 µM (inactive)
GI50 (SF-295): 35.3 µM (inactive)
GI50 (U-251): 35.2 µM (inactive)
GI50 (RPMI-8226): 24.8 µM (inactive)
GI50 (UACC-257): 31.4 µM (inactive)
GI50 (MDA-MB-231): 48.9 µM (inactive)
GI50 (SF-539): 39.8 µM (inactive)
GI50 (OVCAR-8): 45.3 µM (inactive)
GI50 (NCI-H226): 32.7 µM (inactive)
GI50 (CAKI-1): 36 µM (inactive)
GI50 (HOP-62): 98.6 µM (inactive)
GI50 (SR): 26.1 µM (inactive)
GI50 (SK-MEL-2): 19.5 µM (inactive)
GI50 (MCF7): 20 µM (inactive)
GI50 (COLO 205): 23.4 µM (inactive)
GI50 (PC-3): 30.3 µM (inactive)
GI50 (DU-145): 47.2 µM (inactive)
GI50 (LOX IMVI): 12.6 µM (inactive)
GI50 (BT-549): 22.9 µM (inactive)
GI50 (M14): 29.8 µM (inactive)
GI50 (Hs-578T): 64.9 µM (inactive)
GI50 (SN12C): 45.5 µM (inactive)
GI50 (A498): 31.2 µM (inactive)
GI50 (SNB-19): 62.7 µM (inactive)
GI50 (MDA-N): 19.2 µM (inactive)
GI50 (KM12): 30.8 µM (inactive)
GI50 (HCT-15): 30.5 µM
GI50 (HL-60): 22.6 µM (inactive)
GI50 (OVCAR-4): 24.8 µM (inactive)
GI50 (OVCAR-3): 24 µM (inactive)
GI50 (SK-OV-3): > 100 µM (inactive)
GI50 (HOP-92): 33.7 µM (inactive)
GI50 (MDA-MB-435): 24.3 µM (inactive)
GI50 (NCI-H23): 20.4 µM (inactive)
GI50 (SK-MEL-5): 16.9 µM (inactive)
GI50 (NCI/ADR-RES): 39.2 µM (inactive)
GI50 (EKVX): 39.2 µM (inactive)
GI50 (SK-MEL-28): 24 µM (inactive)
GI50 (OVCAR-5): > 100 µM (inactive)
GI50 (K562): 26.8 µM (inactive)
GI50 (IGROV-1): 50.6 µM (inactive)
GI50 (UACC-62): 15.1 µM (inactive)
GI50 (TK-10): 53.5 µM (inactive)
GI50 (SW-620): 52.6 µM (inactive)
GI50 (ACHN): 28.1 µM (inactive)
GI50 (NCI-H522): 46.2 µM (inactive)
GI50 (T47D): 16 µM (inactive)
GI50 (UO-31): 24.4 µM (inactive)
GI50 (HCT-116): 34.1 µM (inactive)
GI50 (SF-268): 47.5 µM (inactive)
GI50 (MOLT-4): 22 µM (inactive)

Source: ChEMBL document CHEMBL1201862, “PubChem BioAssay data set” (2004)
